US8883745B2, “C—glycolipids with enhanced Th-1 profile” (New York University, priority 2006, dated 2014)

Key:
IFN-γ = IFN-γ levels in sera upon i.v. glycolipid administration to C57BL/6 mice (ELISA); assay type: in vivo; design: IFN-γ levels, test 1 / IFN-γ levels, test 2 / IFN-γ levels, average / IFN-γ levels, Total / IFN-γ (B6): unit not given here; conditions: for IFN-γ/IL-4 (B6): C57BL/6, ratio calculated from Tables 1-6; for IFN-γ levels, average / IFN-γ levels, test 1 / IFN-γ levels, test 2 / IFN-γ levels, Total: C57BL/6, serum; for IFN-γ levels, Total: total over hours 0-72
Experimental: (§1) Five- to six-week-old female C57BL/6 mice and BALB/c mice were purchased from Taconic. Each glycolipid was stored at 1 mg/ml in 100% DMSO. Mice were injected intravenously with 1 μg of each glyocolipid diluted in 200 μL sterile phosphate buffered saline (PBS). At indicated time points, sera were collected from each animal, and concentrations of IFN-γ, IL-4, and IL-12 in the sera were evaluated by enzyme-linked immunosorbent assay (ELISA). Serum concentrations of IFN-γ, IL-4, and IL-12 were evaluated using an ELISA kit (eBioscience, San Diego, Calif.). Briefly, 96 well flat-bottom ELISA plates (NUNC) were coated with capture antibody according to the manufacture's recommendation and incubated overnight at 4° C. The plates were washed with PBS+0.05% Tween 20 (PBS-T), then incubated with manufacturer provided blocking solution for 1 hr at room temperature to block non-specific binding sites. After washing with PBS-T, sera diluted 1:10 was added to the wells and incubated for 2 hrs at room temperature. Plates were then incubated at room temperature for 1 hr with biotintylated detection antibody, washed, incubated with avidin conjugated to horse radish peroxidase (HRP) for 30 min at room temperature, washed, and finally incubated with tetramethylbenzidine substrate solution in the dark for 10 minutes at room temperature. The antibodies, avidin-HRP, and substrate solution were all diluted according to the manufacture's recommendation. Reactions were stopped with 2.0N sulfuric acid and the cytokine concentration in each well was determined by comparing the absorbance at 450 nm in each well to known standards. The levels of Th1- and Th2-type cytokines were determined in two different genetic backgrounds, i.e., in C57BL/6 mice and BALB/c mice. The following compounds were administered: A=compound (A-1 trans-conformer), B=compound (A-2), C=compound (A-3), D=compound (A-4), E=compound (A-5), Z=control (PBS alone), CRONY=α-C-GalCer, KRN=α-GalCer, GCK109 (A-1 trans-conformer), GCK151 (A-1 cis-conformer), GCK152 (A-7). The levels of cytokines were measured at 0, 2, 6, 12, 24, 48, and 72 hours after the compound administration. The levels of Th1-type cytokines IFN-γ and IL-12 are summarized in FIGS. 2A-C and 3A-C, respectively. Table 7 provides IFN-γ/IL-4 and IL-12/IL-4 ratios for various compounds, which can be used as indicators of their ability to selectively stimulate Th1-type immune responses.

IL-12 = IL-12 levels in sera upon i.v. glycolipid administration to BALB/c mice (ELISA); assay type: in vivo; design: IL-12 levels, test 1 / IL-12 levels, test 2 / IL-12 levels, average / IL-12 levels, Total: unit not given here; conditions: for IL-12/IL-4 (BALB/c): ratio calculated from Tables 1-6; for IL-12 levels, average / IL-12 levels, test 1 / IL-12 levels, test 2 / IL-12 levels, Total: serum; for IL-12 levels, Total: total over hours 0-72
Experimental: as §1

## CCCCCCCCCCCCCC[C@@H](O)[C@@H](O)[C@H](CC[C@H]1O[C@H](CO)[C@H](O)[C@H](O)[C@H]1O)NC(=O)CCCCCCCCCCCCCCCCCCCOCCCCC [A-5]
IFN-γ
  IFN-γ/IL-4 (B6): 18
  IFN-γ levels, Total: 11775
IFN-γ; hour 0
  IFN-γ levels, average: 31
  IFN-γ levels, test 1: 31
  IFN-γ levels, test 2: 31
IFN-γ; hour 2
  IFN-γ levels, average: 112.5
  IFN-γ levels, test 1: 130
  IFN-γ levels, test 2: 95
IFN-γ; hour 6
  IFN-γ levels, average: 929
  IFN-γ levels, test 1: 930
  IFN-γ levels, test 2: 928
IFN-γ; hour 12
  IFN-γ levels, average: 2108
  IFN-γ levels, test 1: 2215
  IFN-γ levels, test 2: 2001
IFN-γ; hour 24
  IFN-γ levels, average: 8196.5
  IFN-γ levels, test 1: 7680
  IFN-γ levels, test 2: 8713
IFN-γ; hour 48
  IFN-γ levels, average: 295
  IFN-γ levels, test 1: 249
  IFN-γ levels, test 2: 341
IFN-γ; hour 72
  IFN-γ levels, average: 102
  IFN-γ levels, test 1: 101
  IFN-γ levels, test 2: 103
IL-12
  IL-12/IL-4 (BALB/c): 13
  IL-12 levels, Total: 4949
IL-12; hour 0
  IL-12 levels, average: 5
  IL-12 levels, test 1: 5
  IL-12 levels, test 2: 5
IL-12; hour 2
  IL-12 levels, average: 153.5
  IL-12 levels, test 1: 74
  IL-12 levels, test 2: 233
IL-12; hour 6
  IL-12 levels, average: 1668
  IL-12 levels, test 1: 1587
  IL-12 levels, test 2: 1749
IL-12; hour 12
  IL-12 levels, average: 2806.5
  IL-12 levels, test 1: 2246
  IL-12 levels, test 2: 3367
IL-12; hour 24
  IL-12 levels, average: 141
  IL-12 levels, test 1: 110
  IL-12 levels, test 2: 172
IL-12; hour 48
  IL-12 levels, average: 97
  IL-12 levels, test 1: 0
  IL-12 levels, test 2: 194
IL-12; hour 72
  IL-12 levels, average: 76.5
  IL-12 levels, test 1: 153
  IL-12 levels, test 2: 0

## CCCCCCCCCCCCCCCCC/C=C/CCCCCCCCC(=O)N[C@@H](CC[C@H]1O[C@H](CO)[C@H](O)[C@H](O)[C@H]1O)[C@H](O)[C@H](O)CCCCCCCCCCCCCC [A-3]
IFN-γ
  IFN-γ/IL-4 (B6): 14
  IFN-γ levels, Total: 12751
IFN-γ; hour 0
  IFN-γ levels, average: 31
  IFN-γ levels, test 1: 31
  IFN-γ levels, test 2: 31
IFN-γ; hour 2
  IFN-γ levels, average: 213
  IFN-γ levels, test 1: 185
  IFN-γ levels, test 2: 241
IFN-γ; hour 6
  IFN-γ levels, average: 606
  IFN-γ levels, test 1: 542
  IFN-γ levels, test 2: 670
IFN-γ; hour 12
  IFN-γ levels, average: 2440.5
  IFN-γ levels, test 1: 2665
  IFN-γ levels, test 2: 2216
IFN-γ; hour 24
  IFN-γ levels, average: 9036
  IFN-γ levels, test 1: 9837
  IFN-γ levels, test 2: 8235
IFN-γ; hour 48
  IFN-γ levels, average: 344
  IFN-γ levels, test 1: 382
  IFN-γ levels, test 2: 306
IFN-γ; hour 72
  IFN-γ levels, average: 79.5
  IFN-γ levels, test 1: 75
  IFN-γ levels, test 2: 84
IL-12
  IL-12/IL-4 (BALB/c): 9
  IL-12 levels, Total: 4878
IL-12; hour 0
  IL-12 levels, average: 5
  IL-12 levels, test 1: 5
  IL-12 levels, test 2: 5
IL-12; hour 2
  IL-12 levels, average: 240
  IL-12 levels, test 1: 362
  IL-12 levels, test 2: 118
IL-12; hour 6
  IL-12 levels, average: 1384.5
  IL-12 levels, test 1: 1356
  IL-12 levels, test 2: 1413
IL-12; hour 12
  IL-12 levels, average: 3010.5
  IL-12 levels, test 1: 3256
  IL-12 levels, test 2: 2765
IL-12; hour 24
  IL-12 levels, average: 161
  IL-12 levels, test 1: 134
  IL-12 levels, test 2: 188
IL-12; hour 48
  IL-12 levels, average: 0
  IL-12 levels, test 1: 0
  IL-12 levels, test 2: 0
IL-12; hour 72
  IL-12 levels, average: 75.5
  IL-12 levels, test 1: 0
  IL-12 levels, test 2: 151

## CCCCCCCCCCCCCCCCCC/C=C/CCCCCCCCC(=O)N[C@@H](/C=C/[C@H]1O[C@H](CO)[C@H](O)[C@H](O)[C@H]1O)[C@H](O)[C@H](O)CCCCCCCCCCCCCC [A-1]
IFN-γ
  IFN-γ/IL-4 (B6): 12
  IFN-γ levels, Total: 17485
IFN-γ; hour 0
  IFN-γ levels, average: 31
  IFN-γ levels, test 1: 31
  IFN-γ levels, test 2: 31
IFN-γ; hour 2
  IFN-γ levels, average: 281
  IFN-γ levels, test 1: 226
  IFN-γ levels, test 2: 336
IFN-γ; hour 6
  IFN-γ levels, average: 1147.5
  IFN-γ levels, test 1: 1172
  IFN-γ levels, test 2: 1123
IFN-γ; hour 12
  IFN-γ levels, average: 4323
  IFN-γ levels, test 1: 4093
  IFN-γ levels, test 2: 4553
IFN-γ; hour 24
  IFN-γ levels, average: 11150
  IFN-γ levels, test 1: 10000
  IFN-γ levels, test 2: 12300
IFN-γ; hour 48
  IFN-γ levels, average: 400.5
  IFN-γ levels, test 1: 366
  IFN-γ levels, test 2: 435
IFN-γ; hour 72
  IFN-γ levels, average: 151
  IFN-γ levels, test 1: 124
  IFN-γ levels, test 2: 178
IL-12
  IL-12/IL-4 (BALB/c): 21
  IL-12 levels, Total: 14462
IL-12; hour 0
  IL-12 levels, average: 5
  IL-12 levels, test 1: 5
  IL-12 levels, test 2: 5
IL-12; hour 2
  IL-12 levels, average: 119.5
  IL-12 levels, test 1: 0
  IL-12 levels, test 2: 239
IL-12; hour 6
  IL-12 levels, average: 6981
  IL-12 levels, test 1: 7064
  IL-12 levels, test 2: 6898
IL-12; hour 12
  IL-12 levels, average: 7001
  IL-12 levels, test 1: 7513
  IL-12 levels, test 2: 6489
IL-12; hour 24
  IL-12 levels, average: 306
  IL-12 levels, test 1: 299
  IL-12 levels, test 2: 313
IL-12; hour 48
  IL-12 levels, average: 0
  IL-12 levels, test 1: 0
  IL-12 levels, test 2: 0
IL-12; hour 72
  IL-12 levels, average: 48.5
  IL-12 levels, test 1: 0
  IL-12 levels, test 2: 97

## CCCCCCCCCCCCCC[C@@H](O)[C@@H](O)[C@H](CC[C@H]1O[C@H](CO)[C@H](O)[C@H](O)[C@H]1O)NC(=O)CCCCCCCCCCCCCCCCCCCOCCCCCC [A-4]
IFN-γ
  IFN-γ/IL-4 (B6): 10
  IFN-γ levels, Total: 10532
IFN-γ; hour 0
  IFN-γ levels, average: 31
  IFN-γ levels, test 1: 31
  IFN-γ levels, test 2: 31
IFN-γ; hour 2
  IFN-γ levels, average: 308.5
  IFN-γ levels, test 1: 255
  IFN-γ levels, test 2: 362
IFN-γ; hour 6
  IFN-γ levels, average: 1329
  IFN-γ levels, test 1: 1381
  IFN-γ levels, test 2: 1277
IFN-γ; hour 12
  IFN-γ levels, average: 2335.5
  IFN-γ levels, test 1: 2466
  IFN-γ levels, test 2: 2205
IFN-γ; hour 24
  IFN-γ levels, average: 5563.5
  IFN-γ levels, test 1: 5291
  IFN-γ levels, test 2: 5836
IFN-γ; hour 48
  IFN-γ levels, average: 742
  IFN-γ levels, test 1: 581
  IFN-γ levels, test 2: 903
IFN-γ; hour 72
  IFN-γ levels, average: 220.5
  IFN-γ levels, test 1: 245
  IFN-γ levels, test 2: 196
IL-12
  IL-12/IL-4 (BALB/c): 12
  IL-12 levels, Total: 5926
IL-12; hour 0
  IL-12 levels, average: 5
  IL-12 levels, test 1: 5
  IL-12 levels, test 2: 5
IL-12; hour 2
  IL-12 levels, average: 54.5
  IL-12 levels, test 1: 57
  IL-12 levels, test 2: 52
IL-12; hour 6
  IL-12 levels, average: 914.5
  IL-12 levels, test 1: 730
  IL-12 levels, test 2: 1099
IL-12; hour 12
  IL-12 levels, average: 4463
  IL-12 levels, test 1: 3799
  IL-12 levels, test 2: 5127
IL-12; hour 24
  IL-12 levels, average: 333.5
  IL-12 levels, test 1: 396
  IL-12 levels, test 2: 271
IL-12; hour 48
  IL-12 levels, average: 89
  IL-12 levels, test 1: 58
  IL-12 levels, test 2: 120
IL-12; hour 72
  IL-12 levels, average: 64.5
  IL-12 levels, test 1: 78
  IL-12 levels, test 2: 51
